Patent US9717752B2, “Uses of antagonists of hyaluronan signaling” (The United States of America, as represented by the …, priority 2012, dated 2017)
“Also recorded” adds a separate entry of the source.

Columns and labels:
mice exposed to sHA = test: In vivo model of airway contraction (AHR) after sHA instillation, airway resistance to methacholine; conditions: 50 μl of 1-2 mg/ml by oropharyngeal aspiration, methacholine challenge 2 hours after sHA, compared to sHA with saline
Procedure: (§1) Measurements of respiratory mechanics were made by the forced oscillation technique. Response to aerosolized methacholine (0, 10 mg/ml, 25 mg/ml, and 100 mg/ml) was determined by resistance measurements every 30 seconds for 5 minutes, ensuring the parameters calculated had peaked. The resistance measurements were then averaged at each dose and graphed (RT, measured in cm H2O/ml/s) along with the initial baseline measurement.
(§2) In the following studies to evaluate the effect of heparosan, mice were exposed to one of several agents: sHA (50 μl of a 1 mg/ml sHA solution in PBS—sonicated Healon, AMO Inc., Santa Ana, Calif.); 1 ppm ozone (O3) for 4 hours; or inhaled OVA (sensitization with i.p. injection of 10 μg OVA (Sigma, St. Louis, Mo.), adsorbed to 2 mg of alum adjuvant (Pierce Biotechnology, Inc., Rockford, Ill.) diluted in saline on days 0 and 7, 60 minutes inhaled exposure to 1% OVA aerosol on days 14 and 15). Mice were phenotyped for AHR at typical time points for each of these exposures: 2 hours after sHA instillation; 24 hours after ozone exposure; and 48 hours after second OVA exposure. Thirty minutes prior to phenotyping, mice received appropriate treatment (saline, heparosan or heparin) by oropharyngeal aspiration. Mice received 50 μl of a 1-2 mg/ml solution of heparosan or heparin (or 50 μl of saline as a control). […]

mice exposed to ozone = test: Murine model of airway contraction after ozone exposure, airway resistance; type: in vivo; conditions: 1 ppm ozone for 4 hours, given 24 hours after exposure, 50 μl of 1-2 mg/ml by oropharyngeal aspiration, compared to saline placebo
Procedure: as §1, §2

[1] = test system: mice sensitized to ovalbumin and exposed to inhaled ovalbumin; test: Murine model of airway contraction in allergic asthma (ovalbumin), airway resistance; type: in vivo; conditions: given 48 hours after OVA exposure, 50 μl of 1-2 mg/ml by oropharyngeal aspiration, compared to saline placebo
Procedure: as §1, §2

mouse tracheal rings = test: Tracheal ring assay, in vitro model of mouse airway smooth muscle cell contractility; type: cell-based; conditions: for effect on sHA-exaggerated contractile response of tracheal rings to carbachol: 1 mg/mL sHA+0.5 mg/mL oHA
Procedure: Airway smooth muscle reactivity was assessed in temperature-controlled (37° C.) organ baths containing Krebs-Henseleit buffer solution of the following composition: 118 mM NaCl, 4.7 mM KCl, 2.5 mM CaCl2, 1.2 mM MgSO4, 25 mM NaHCO3, 1.2 mM KH2PO4, and 11.1 mM glucose, continuously bubbled with 5% CO2 and 95% O2. Tracheal segments were mounted in organ baths between two metal hooks and connected to a K30 force displacement transducer under approximately 5-mN resting tension. Isometric contractile responses were recorded after dosing with carbachol (a bronchial constrictor) and isoproterenol (a bronchial dilator).

[2] = test system: mice exposed to inhaled endotoxin (LPS); test: Murine model of inflammatory asthma (inhaled endotoxin/LPS), airway resistance; type: in vivo; conditions: for airway resistance after inhaled endotoxin (LPS) exposure: LPS+oHA, 50 μl of 1.5 mg/ml oHA by oropharyngeal aspiration after exposure
Procedure: as §1
In the following studies to evaluate the effect of oHA, mice were exposed to sHA (50 μl of a 1 mg/ml sHA solution in PBS—sonicated Healon, AMO Inc., Santa Ana, Calif.) or inhaled endotoxin (5 μg/m^3) over 2.5 hours. Mice were phenotyped for AHR at typical time points for each of these exposures: 2 hours after sHA instillation; or 4 hours after endotoxin exposure. Thirty minutes prior to phenotyping, mice received appropriate treatment (saline, vehicle or oHA) by oropharyngeal aspiration. Mice were treated with 50 μl of 1.5 mg/ml oHA. Phenotyping was with invasive airway pressure measurements (FlexiVent™).

[3] = test system: human airway smooth muscle cells (ASMC); test: Gel contraction: human airway smooth muscle cells in 3-dimensional collagen-hyaluronan gels; type: cell-based
Procedure: The in vitro effect of heparosan on human airway smooth muscle cells (ASMC) was tested in 3-dimensional, collagen-hyaluronan gels. Collagen-only gels were used as controls. Human ASMC (6×10^5 cells/ml) in basal media were seeded into the gel solution and incubated up to 36 hours at 37° C. in 5% CO2. Gels were scanned at varying time intervals to monitor gel contraction. After 24 hours, the gels were fixed with 4% paraformaldehyde and stained with phalloidin and DAPI. In some experiments, the ROCK inhibitor Y-27632 was added to the gel. Change in gel area was measured by NIH Image J software.

## heparin [reference compound]
Mice exposed to sHA
  airway resistance after sHA exposure: increased the development of airway resistance
Mice exposed to ozone
  airway resistance after ozone exposure: had no effect on airway resistance beyond saline
[1]
  airway resistance in ovalbumin allergic asthma model: increased the development of airway resistance

## heparosan
Mouse tracheal rings
  effect on sHA-exaggerated contractile response of tracheal rings to carbachol: ameliorates tracheal ring contractility
Mice exposed to sHA
  airway resistance after sHA exposure: decreased the development of airway resistance
Mice exposed to ozone
  airway resistance after ozone exposure: led to decreased airway resistance compared to saline placebo treatment
[1]
  airway resistance in ovalbumin allergic asthma model: led to decreased airway resistance compared to saline placebo treatment
[2]
  airway resistance after inhaled endotoxin (LPS) exposure: inhibits inflammatory AHR
[3]; collagen-hyaluronan gel, change in gel area
  effect on sHA-induced contraction of gel containing human ASMC: inhibited this action, and was indistinguishable from control cells

## hyaluronan oligosaccharide [oHA]
Mouse tracheal rings
  effect on sHA-exaggerated contractile response of tracheal rings to carbachol: inhibited this action
[2]
  airway resistance after inhaled endotoxin (LPS) exposure: led to decreased airway resistance
[2]; saline+oHA (oHA alone)
  airway contractility without LPS exposure: had no effect on airway contractility

## short fragment hyaluronan [sHA, reference compound]
Mouse tracheal rings; 1 mg/mL sHA versus 0 mg/mL sHA
  contractile response of tracheal rings to carbachol: led to an exaggerated contractile response of mouse tracheal rings to the constrictor substance carbachol
[3]; sHA alone, versus collagen-only control gels
  contraction of gel containing human ASMC: led to rapid contraction of a gel containing human ASMC; also recorded: led to rapid contraction of a gel containing haSMC
